In ChEMBL document CHEMBL1268873, “Nitrile-containing pharmaceuticals: efficacious roles of the nitrile pharmacophore” (J Med Chem, 2010):
In brackets after ≈: the same amount, converted by molar mass.

Legend:
L1210 = experiment: Cytotoxicity against mouse L1210 cells; type: functional, cell-based; conditions: for IC50: Mus musculus, L1210
KB = experiment: Cytotoxicity against human KB cells; type: functional, cell-based
[1] = Inhibition of HIV RT; design: species or system Human immunodeficiency virus

| SMILES | IC50 (L1210) [µg/mL] | IC50 (KB) [µg/mL] | IC5 (L1210) [ng/mL] | IC50 [1] [nM] |
| --- | --- | --- | --- | --- |
| COc1cc([C@@H]2c3cc4c(cc3[C@@H](O[C@@H]3O[C@@H]5CO[C@H](C)O[C@H]5[C@H](O)[C@H]3O)[C@H]3COCC23)OCO4)cc(OC)c1OC (stereo not given in full) | 0.155 (≈ 0.263 µM) | 0.308 (≈ 0.523 µM) |  |  |
| COc1cc([C@@H]2c3cc4c(cc3[C@@H](C#N)[C@H]3COCC23)OCO4)cc(OC)c1OC (stereo not given in full) |  | 0.155 (≈ 0.379 µM) | 3.48 |  |
| COc1cc([C@@H]2c3cc4c(cc3[C@@H](C(=O)O)[C@H]3COCC23)OCO4)cc(OC)c1OC (stereo not given in full) | 0.164 (≈ 0.383 µM) | 10 (≈ 23.3 µM) |  |  |
| Cc1c(Oc2cc(Cl)cc(Cl)c2)c(C(C)C)nn1CCO |  |  |  | 560 |
| CCc1nn(CCO)c(CC)c1Oc1cccc(C#N)c1 |  |  |  | 350 |
| CC(C)c1nc(COC(N)=O)n(Cc2ccncc2)c1Sc1cc(Cl)cc(Cl)c1 [CAPRAVIRINE] |  |  |  | 93 |
| CCc1nn(CCO)c(CC)c1Oc1cc(C#N)cc(C#N)c1 [LERSIVIRINE] |  |  |  | 119 |
